Measurements published in US7501410B2, “Methods of inhibiting BTK and SYK protein kinases” (Roche Palo Alto LLC, priority 2006, dated 2009).

Tests used:
[1] = target: T1, Bruton's Tyrosine Kinase (Btk) (Homo sapiens, UniProt Q06187); test: Determination of IC50 of Bruton's Tyrosine Kinase (Btk) inhibition, 33P filtration assay; format: biochemical; conditions: His-tagged full-length Btk, 100 μM ATP
T1 construct: 5-10 nM Btk enzyme (His-tagged, full-length); His tag
In short: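 Full-length His-tagged Btk (5-10 nM) preincubated 10 min at RT with compounds, then 30 min at 30° C with 30 μM biotinylated SH2 peptide, 100 μM ATP plus ^33P ATP, Mn/Mg in imidazole buffer pH 7.2. Product captured on streptavidin beads, counted by scintillation; 10-point half-log IC50 from 100 μM, background without substrate.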

[2] = tested on: Ramos cells; test: Inhibition of B-cell activation, B cell FLIPR assay in Ramos cells; format: cell-based; conditions: Homo sapiens, anti-IgM stimulated intracellular calcium increase
Source text: Inhibition of B-cell Activation—B Cell FLIPR Assay in Ramos Cells
The B cell FLIPR assay is a cell based functional method of determining the effect of potential inhibitors of the intracellular calcium increase from stimulation by an anti-IgM antibody. Ramos cells (human Burkitt's lymphoma cell line. ATCC-No. CRL-1596) were cultivated in Growth Media (described below). One day prior to assay, Ramos cells were resuspended in fresh growth media (same as above) and set at a concentration of 0.5×10^6/mL in tissue culture flasks. On day of assay, cells were counted and set at a concentration of 1×10^6/mL in growth media supplemented with 1 μM FLUO-3 AM(TefLabs Cat-No. 0116, prepared in anhydrous DMSO and 10% Pluronic acid) in a tissue culture flask, and incubated at 37° C. (4% CO2) for 1 h. To remove extracellular dye, cells were collected by centrifugation (5 min, 1000 rpm), resuspended in FLIPR buffer (described below) at 1×10^6 cells/mL and then dispensed into 96-well poly-D-lysine coated black/clear plates (BD Cat-No. 356692) at 1×10^5 cells per well. Test compounds at seven concentrations ranging from 100 μM to 0.03 μM were added, and allowed to incubate with cells for 30 min at RT. Ramos cell Ca^2+ signaling was stimulated by the addition of 10 μg/mL anti-IgM (Southern Biotech, Cat-No. 2020-01) and measured on a FLIPR (Molecular Devices, captures images of 96 well plates using a CCD camera with an argon laser at 480 nm excitation).
Growth Medium: RPMI 1640 medium with L-glutamine (Invitrogen, Cat-No. 61870-010), 10% Fetal Bovine Serum (FBS, Summit Biotechnology Cat-No. FP-100-05); 1 mM Sodium Pyruvate (Invitrogen Cat. No. 11360-070).
FLIPR buffer: HBSS (Invitrogen, Cat-No. 141175-079),2 mM CaCl2 (Sigma Cat-No. C-4901), HEPES (Invitrogen, Cat-No. 15630-080), 2.5 mM Probenecid (Sigma, Cat-No. P-8761), 0.1% BSA (Sigma, Cat-No. A-7906), 11 mM Glucose (Sigma, Cat-No. G-7528).
In order to achieve the highest final assay concentration of 100 μM, 24 μL of 10 mM compound stock solution (made in DMSO) is added directly to 576 μL of FLIPR buffer. The test compounds are diluted in FLIPR Buffer (using Biomek 2000 robotic pipettor) resulting in the following dilution scheme: vehicle, 1.00×10^−4 M, 1.00×10^−5, 3.16×10^−6, 1.00×10^−6, 3.16×10^−7, 1.00×10^−7, 3.16×10^−8.
Intracellular increases in calcium were reported using a max-min statistic (subtracting the resting baseline from the peak caused by addition of the stimulatory antibody using a Molecular Devices FLIPR control and statistic exporting software. The IC50 was determined using a non-linear curve fit (GraphPad Prism software). Representative results are in Table 1.

T1 sequence (Q06187 whole entry): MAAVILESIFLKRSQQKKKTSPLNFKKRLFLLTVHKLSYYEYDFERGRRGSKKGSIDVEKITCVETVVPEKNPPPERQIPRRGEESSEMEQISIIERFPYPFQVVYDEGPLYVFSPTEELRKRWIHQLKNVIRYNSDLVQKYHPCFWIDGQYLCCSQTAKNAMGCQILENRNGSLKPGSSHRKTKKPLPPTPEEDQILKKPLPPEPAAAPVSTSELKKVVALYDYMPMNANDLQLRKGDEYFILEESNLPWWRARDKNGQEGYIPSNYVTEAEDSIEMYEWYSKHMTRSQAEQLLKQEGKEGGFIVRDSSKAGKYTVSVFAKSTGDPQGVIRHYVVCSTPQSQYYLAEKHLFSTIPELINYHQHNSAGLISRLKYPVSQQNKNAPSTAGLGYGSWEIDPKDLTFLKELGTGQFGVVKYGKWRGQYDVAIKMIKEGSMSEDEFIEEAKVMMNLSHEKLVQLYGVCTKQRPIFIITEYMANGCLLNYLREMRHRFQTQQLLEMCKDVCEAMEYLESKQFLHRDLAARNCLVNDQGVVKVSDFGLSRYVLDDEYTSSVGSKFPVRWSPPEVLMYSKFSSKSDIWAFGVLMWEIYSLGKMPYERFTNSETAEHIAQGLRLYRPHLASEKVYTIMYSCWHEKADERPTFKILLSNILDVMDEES

Q: What does the source list for `Cc1cc(Nc2nn(C(C)C)c(=O)c3cc(N4CCOCC4)ccc23)n[nH]1` [Example F-1, 2-Isopropyl-4-(5-methyl-1H-pyrazol-3-ylamino)-7-morpholino-2H-phthalazin-1-one]?
A: IC50 [1]: 0.275 µM; IC50 [2]: 1.2 µM

Q: How did the IC50 [1] turn out when `Cc1cc(Nc2nn(C(C)C)c(=O)c3cc(N4CCN(C)CC4)ccc23)[nH]n1` [Example F-5, 2-Isopropyl-7-(4-methyl-piperazin-1-yl)-4-(5-methyl-2H-pyrazol-3-ylamino)-2H-phthalazin-1-one] was run?
A: 0.102 µM

Q: What about the IC50 [2] of the same compound?
A: 0.41 µM

Q: Which results are given for `Cc1cc(Nc2nn(C(C)C)c(=O)c3cc(OCCN(C)C)ccc23)n[nH]1` [Example ZD-5, 7-(2-Dimethylamino-ethoxy)-2-isopropyl-4-(5-methyl-1H-pyrazol-3-ylamino)-2H-phthalazin-1-one]?
A: IC50 [1]: 0.186 µM; IC50 [2]: 0.575 µM
